According to PubChem BioAssay (NCI):
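Growth conditions: 96-well plates. Treatment: test compound, 48 hours, 5 concentrations. Analysis: linear interpolation between bracketing concentrations; unreached endpoints set to highest concentration. TGI denotes the concentration required for complete inhibition of growth.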

system: M19-MEL melanoma; assay: NCI tumour cell line growth inhibition, 48 h

| Compound | TGI [µM] |
| --- | --- |
| COc1ccc(N2C(=O)/C(=C(\C)c3cc4ccccc4oc3=O)N=C2c2cc([N+](=O)[O-])ccc2Cl)cc1 | > 100 |
| CC(=O)N(C)c1ccc(Nc2cc(C)[nH]c3ccc4ncnc4c23)cc1 | 20.1 |
| CC(C)(C)[Si](OC1CC(n2cnc3c(N)ncnc32)OC1CO)(c1ccccc1)c1ccccc1 (stereo not given) | 42.9 |
| O=C(O)c1ccc(Nc2c3ccccc3nc3ccccc23)cc1 | > 100 |
| COc1ccc(C2COc3cc(OC(C)=O)c(OC(C)=O)cc3C2)cc1 (stereo not given) | 37.7 |

system: PC-3 prostate; assay: NCI tumour cell line growth inhibition, 48 h

| Compound | TGI [µM] |
| --- | --- |
| c1nc(OCC2CCCCC2)c2[nH]cnc2n1 | > 100 |
| Oc1cn(-c2ccc(Cl)cc2)nc1-c1nnc(-c2ccccc2)o1 | > 66.6 |
| O=C(O)CC(CC(=O)O)C(=O)O | > 100 |
| CC(=O)N(C)c1ccc(Nc2cc(C)[nH]c3ccc4ncnc4c23)cc1 | 18 |
| FC(F)(F)c1ccc(N=C/C=C(/Nc2ccc(C(F)(F)F)cc2)c2ccc(Cl)cc2)cc1 | 75.8 |
| CCCCN(CCCC)CC(O)c1cc(-c2ccc(C(F)(F)F)cc2)nc(-c2ccc(C(F)(F)F)cc2)c1 (stereo not given) | > 100 |
| NS(=O)(=O)c1ccc(N=Nc2nc3[nH]c(=O)[nH]c(=O)c3[nH]2)cc1 | > 100 |
| CC1=CC(C)C/C=C/C2C3OC3(C)C(C)C3C(Cc4c[nH]c5ccccc45)NC(=O)C23C(=O)C=CC(=O)C1O (stereo not given) | 30.1 |
| Cc1cc(C)n(C(=C(C(Cl)=C(Cl)Cl)[N+](=O)[O-])n2nc(C)cc2C)n1 | 13.6 |
| CCOc1cc2c(OCc3ccccc3)cc3c4cc(OC)c(OC)cc4c[n+](C)c3c2cc1OC | 4.84 |
| C/C(=N\NC(=S)N1CCCCC1)c1nc2ncccc2[nH]1 | > 100 |

system: LXFL 529 NSCLC; assay: NCI tumour cell line growth inhibition, 48 h

| Compound | TGI [µM] |
| --- | --- |
| COc1ccc(N2C(=O)/C(=C(\C)c3cc4ccccc4oc3=O)N=C2c2cc([N+](=O)[O-])ccc2Cl)cc1 | > 100 |
| CC(C)(C)[Si](OC1CC(n2cnc3c(N)ncnc32)OC1CO)(c1ccccc1)c1ccccc1 (stereo not given) | > 100 |

system: KM20L2 colon; assay: NCI tumour cell line growth inhibition, 48 h

| Compound | TGI [µM] |
| --- | --- |
| COc1ccc(N2C(=O)/C(=C(\C)c3cc4ccccc4oc3=O)N=C2c2cc([N+](=O)[O-])ccc2Cl)cc1 | > 100 |
| CC(=O)N(C)c1ccc(Nc2cc(C)[nH]c3ccc4ncnc4c23)cc1 | 37.2 |
| CC(C)(C)[Si](OC1CC(n2cnc3c(N)ncnc32)OC1CO)(c1ccccc1)c1ccccc1 (stereo not given) | 29.5 |
| O=C(O)c1ccc(Nc2c3ccccc3nc3ccccc23)cc1 | > 100 |
| COc1ccc(C2COc3cc(OC(C)=O)c(OC(C)=O)cc3C2)cc1 (stereo not given) | 65.8 |

system: DMS 273 small cell lung; assay: NCI tumour cell line growth inhibition, 48 h

| Compound | TGI [µM] |
| --- | --- |
| CC(=O)N(C)c1ccc(Nc2cc(C)[nH]c3ccc4ncnc4c23)cc1 | 24.3 |
| CC(C)(C)[Si](OC1CC(n2cnc3c(N)ncnc32)OC1CO)(c1ccccc1)c1ccccc1 (stereo not given) | 35.8 |
| O=C(O)c1ccc(Nc2c3ccccc3nc3ccccc23)cc1 | > 100 |
| COc1ccc(C2COc3cc(OC(C)=O)c(OC(C)=O)cc3C2)cc1 (stereo not given) | 52.7 |

system: SNB-78 CNS; assay: NCI tumour cell line growth inhibition, 48 h

| Compound | TGI [µM] |
| --- | --- |
| COc1ccc(N2C(=O)/C(=C(\C)c3cc4ccccc4oc3=O)N=C2c2cc([N+](=O)[O-])ccc2Cl)cc1 | > 100 |
| CC(=O)N(C)c1ccc(Nc2cc(C)[nH]c3ccc4ncnc4c23)cc1 | 53.6 |
| CC(C)(C)[Si](OC1CC(n2cnc3c(N)ncnc32)OC1CO)(c1ccccc1)c1ccccc1 (stereo not given) | > 100 |
| O=C(O)c1ccc(Nc2c3ccccc3nc3ccccc23)cc1 | > 100 |
| COc1ccc(C2COc3cc(OC(C)=O)c(OC(C)=O)cc3C2)cc1 (stereo not given) | 81.4 |

system: DMS 114 small cell lung; assay: NCI tumour cell line growth inhibition, 48 h

| Compound | TGI [µM] |
| --- | --- |
| COc1ccc(N2C(=O)/C(=C(\C)c3cc4ccccc4oc3=O)N=C2c2cc([N+](=O)[O-])ccc2Cl)cc1 | > 100 |
| CC(=O)N(C)c1ccc(Nc2cc(C)[nH]c3ccc4ncnc4c23)cc1 | 20.4 |
| CC(C)(C)[Si](OC1CC(n2cnc3c(N)ncnc32)OC1CO)(c1ccccc1)c1ccccc1 (stereo not given) | 54.2 |
| O=C(O)c1ccc(Nc2c3ccccc3nc3ccccc23)cc1 | > 100 |
| COc1ccc(C2COc3cc(OC(C)=O)c(OC(C)=O)cc3C2)cc1 (stereo not given) | 20.6 |

system: RXF-631 renal; assay: NCI tumour cell line growth inhibition, 48 h

| Compound | TGI [µM] |
| --- | --- |
| COc1ccc(N2C(=O)/C(=C(\C)c3cc4ccccc4oc3=O)N=C2c2cc([N+](=O)[O-])ccc2Cl)cc1 | > 100 |

system: HOP-18 NSCLC; assay: NCI tumour cell line growth inhibition, 48 h

| Compound | TGI [µM] |
| --- | --- |
| COc1ccc(N2C(=O)/C(=C(\C)c3cc4ccccc4oc3=O)N=C2c2cc([N+](=O)[O-])ccc2Cl)cc1 | > 100 |
| CC(=O)N(C)c1ccc(Nc2cc(C)[nH]c3ccc4ncnc4c23)cc1 | 53.1 |
| CC(C)(C)[Si](OC1CC(n2cnc3c(N)ncnc32)OC1CO)(c1ccccc1)c1ccccc1 (stereo not given) | > 100 |
| O=C(O)c1ccc(Nc2c3ccccc3nc3ccccc23)cc1 | > 100 |
| COc1ccc(C2COc3cc(OC(C)=O)c(OC(C)=O)cc3C2)cc1 (stereo not given) | 19.3 |

system: P388 leukemia; assay: NCI tumour cell line growth inhibition, 48 h

| Compound | TGI [µM] |
| --- | --- |
| CC(=O)N(C)c1ccc(Nc2cc(C)[nH]c3ccc4ncnc4c23)cc1 | 49.2 |
| O=C(O)c1ccc(Nc2c3ccccc3nc3ccccc23)cc1 | > 46.6 |
| COc1ccc(C2COc3cc(OC(C)=O)c(OC(C)=O)cc3C2)cc1 (stereo not given) | 33.5 |

system: MDA-MB-435; assay: NCI tumour cell line growth inhibition, 48 h

| Compound | TGI [µM] |
| --- | --- |
| c1nc(OCC2CCCCC2)c2[nH]cnc2n1 | > 100 |
| Oc1cn(-c2ccc(Cl)cc2)nc1-c1nnc(-c2ccccc2)o1 | 10.4 |
| O=C(O)CC(CC(=O)O)C(=O)O | > 100 |
| CC(=O)N(C)c1ccc(Nc2cc(C)[nH]c3ccc4ncnc4c23)cc1 | 23.3 |
| FC(F)(F)c1ccc(N=C/C=C(/Nc2ccc(C(F)(F)F)cc2)c2ccc(Cl)cc2)cc1 | 23 |
| CCCCN(CCCC)CC(O)c1cc(-c2ccc(C(F)(F)F)cc2)nc(-c2ccc(C(F)(F)F)cc2)c1 (stereo not given) | > 100 |
| NS(=O)(=O)c1ccc(N=Nc2nc3[nH]c(=O)[nH]c(=O)c3[nH]2)cc1 | > 100 |
| CC1=CC(C)C/C=C/C2C3OC3(C)C(C)C3C(Cc4c[nH]c5ccccc45)NC(=O)C23C(=O)C=CC(=O)C1O (stereo not given) | 46.6 |
| Cc1cc(C)n(C(=C(C(Cl)=C(Cl)Cl)[N+](=O)[O-])n2nc(C)cc2C)n1 | 5.56 |
| C/C(=N\NC(=S)N1CCCCC1)c1nc2ncccc2[nH]1 | 35 |

system: SN12K1 renal; assay: NCI tumour cell line growth inhibition, 48 h

| Compound | TGI [µM] |
| --- | --- |
| CC(=O)N(C)c1ccc(Nc2cc(C)[nH]c3ccc4ncnc4c23)cc1 | 16.6 |
| O=C(O)c1ccc(Nc2c3ccccc3nc3ccccc23)cc1 | > 100 |
| COc1ccc(C2COc3cc(OC(C)=O)c(OC(C)=O)cc3C2)cc1 (stereo not given) | 35.7 |

system: DU-145 prostate; assay: NCI tumour cell line growth inhibition, 48 h

| Compound | TGI [µM] |
| --- | --- |
| c1nc(OCC2CCCCC2)c2[nH]cnc2n1 | > 100 |
| Oc1cn(-c2ccc(Cl)cc2)nc1-c1nnc(-c2ccccc2)o1 | > 60.6 |
| O=C(O)CC(CC(=O)O)C(=O)O | > 100 |
| CC(=O)N(C)c1ccc(Nc2cc(C)[nH]c3ccc4ncnc4c23)cc1 | 22.4 |
| FC(F)(F)c1ccc(N=C/C=C(/Nc2ccc(C(F)(F)F)cc2)c2ccc(Cl)cc2)cc1 | 31.8 |
| CCCCN(CCCC)CC(O)c1cc(-c2ccc(C(F)(F)F)cc2)nc(-c2ccc(C(F)(F)F)cc2)c1 (stereo not given) | > 100 |
| NS(=O)(=O)c1ccc(N=Nc2nc3[nH]c(=O)[nH]c(=O)c3[nH]2)cc1 | > 100 |
| CC1=CC(C)C/C=C/C2C3OC3(C)C(C)C3C(Cc4c[nH]c5ccccc45)NC(=O)C23C(=O)C=CC(=O)C1O (stereo not given) | 27.6 |
| Cc1cc(C)n(C(=C(C(Cl)=C(Cl)Cl)[N+](=O)[O-])n2nc(C)cc2C)n1 | 14.9 |
| CCOc1cc2c(OCc3ccccc3)cc3c4cc(OC)c(OC)cc4c[n+](C)c3c2cc1OC | 23.2 |
| C/C(=N\NC(=S)N1CCCCC1)c1nc2ncccc2[nH]1 | 86.3 |

system: XF 498 CNS; assay: NCI tumour cell line growth inhibition, 48 h

| Compound | TGI [µM] |
| --- | --- |
| CC(=O)N(C)c1ccc(Nc2cc(C)[nH]c3ccc4ncnc4c23)cc1 | 5.92 |
| CC(C)(C)[Si](OC1CC(n2cnc3c(N)ncnc32)OC1CO)(c1ccccc1)c1ccccc1 (stereo not given) | 51.3 |
| COc1ccc(C2COc3cc(OC(C)=O)c(OC(C)=O)cc3C2)cc1 (stereo not given) | 23.9 |

system: DLD-1 colon; assay: NCI tumour cell line growth inhibition, 48 h

| Compound | TGI [µM] |
| --- | --- |
| COc1ccc(N2C(=O)/C(=C(\C)c3cc4ccccc4oc3=O)N=C2c2cc([N+](=O)[O-])ccc2Cl)cc1 | > 100 |
| CC(=O)N(C)c1ccc(Nc2cc(C)[nH]c3ccc4ncnc4c23)cc1 | 74.2 |
| CC(C)(C)[Si](OC1CC(n2cnc3c(N)ncnc32)OC1CO)(c1ccccc1)c1ccccc1 (stereo not given) | 30 |
| COc1ccc(C2COc3cc(OC(C)=O)c(OC(C)=O)cc3C2)cc1 (stereo not given) | 54.8 |

system: P388/ADR leukemia; assay: NCI tumour cell line growth inhibition, 48 h

| Compound | TGI [µM] |
| --- | --- |
| CC(=O)N(C)c1ccc(Nc2cc(C)[nH]c3ccc4ncnc4c23)cc1 | 228 |
| O=C(O)c1ccc(Nc2c3ccccc3nc3ccccc23)cc1 | 98.4 |
| COc1ccc(C2COc3cc(OC(C)=O)c(OC(C)=O)cc3C2)cc1 (stereo not given) | 17.7 |
